{"source": "paper PMC8333425", "about": "“Discovery of a dual Ras and ARF6 inhibitor from a GPCR endocytosis screen” (Nature Communications, 2021)", "experiment_in_all_cases": "KINOMEscan kinase binding assay", "key": {"[1]": {"biological_target": "T1, 384 kinases from the human genome (Homo sapiens, UniProt O75460)", "T1 construct": "purchased Eurofin/DiscoverX", "T1 sequence (O75460 19-977)": "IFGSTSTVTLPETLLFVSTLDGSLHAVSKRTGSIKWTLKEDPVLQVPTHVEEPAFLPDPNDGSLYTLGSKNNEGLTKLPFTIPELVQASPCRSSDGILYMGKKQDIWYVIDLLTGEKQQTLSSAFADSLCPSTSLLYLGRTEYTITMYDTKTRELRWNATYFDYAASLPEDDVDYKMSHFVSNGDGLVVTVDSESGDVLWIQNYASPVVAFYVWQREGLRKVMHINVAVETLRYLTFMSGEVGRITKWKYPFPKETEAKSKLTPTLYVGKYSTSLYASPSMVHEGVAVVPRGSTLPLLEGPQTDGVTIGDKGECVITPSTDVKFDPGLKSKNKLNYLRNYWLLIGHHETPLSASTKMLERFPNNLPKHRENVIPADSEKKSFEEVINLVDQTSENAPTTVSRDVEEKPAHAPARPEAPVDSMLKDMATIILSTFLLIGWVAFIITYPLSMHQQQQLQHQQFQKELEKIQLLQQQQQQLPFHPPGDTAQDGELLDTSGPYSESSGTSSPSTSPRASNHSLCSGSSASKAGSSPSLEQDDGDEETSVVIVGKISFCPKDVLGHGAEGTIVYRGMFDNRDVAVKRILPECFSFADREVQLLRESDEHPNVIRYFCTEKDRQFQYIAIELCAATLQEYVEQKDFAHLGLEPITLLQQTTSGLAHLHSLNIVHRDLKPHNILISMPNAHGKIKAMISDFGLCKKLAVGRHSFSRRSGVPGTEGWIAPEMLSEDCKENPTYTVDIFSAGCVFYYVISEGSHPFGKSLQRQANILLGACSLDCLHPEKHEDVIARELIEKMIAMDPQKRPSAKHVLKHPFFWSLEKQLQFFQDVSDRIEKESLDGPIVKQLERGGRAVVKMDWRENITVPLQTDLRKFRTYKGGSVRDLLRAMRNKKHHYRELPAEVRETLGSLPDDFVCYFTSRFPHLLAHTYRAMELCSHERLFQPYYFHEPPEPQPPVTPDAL", "conditions": "kinase ERN1 (Entrez ERN1)", "procedure,_shortened": "(§1)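 Competition binding (KINOMEscan) across 384 human kinases with compound at 10 µM. Ligand binding was expressed relative to DMSO (100%) as the average of duplicates from one experiment. S(10) selectivity score was derived.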"}, "[2]": {"biological_target": "T2, 384 kinases from the human genome (Homo sapiens, UniProt P00533)", "T2 construct": "purchased Eurofin/DiscoverX", "T2 sequence (P00533 25-1210)": "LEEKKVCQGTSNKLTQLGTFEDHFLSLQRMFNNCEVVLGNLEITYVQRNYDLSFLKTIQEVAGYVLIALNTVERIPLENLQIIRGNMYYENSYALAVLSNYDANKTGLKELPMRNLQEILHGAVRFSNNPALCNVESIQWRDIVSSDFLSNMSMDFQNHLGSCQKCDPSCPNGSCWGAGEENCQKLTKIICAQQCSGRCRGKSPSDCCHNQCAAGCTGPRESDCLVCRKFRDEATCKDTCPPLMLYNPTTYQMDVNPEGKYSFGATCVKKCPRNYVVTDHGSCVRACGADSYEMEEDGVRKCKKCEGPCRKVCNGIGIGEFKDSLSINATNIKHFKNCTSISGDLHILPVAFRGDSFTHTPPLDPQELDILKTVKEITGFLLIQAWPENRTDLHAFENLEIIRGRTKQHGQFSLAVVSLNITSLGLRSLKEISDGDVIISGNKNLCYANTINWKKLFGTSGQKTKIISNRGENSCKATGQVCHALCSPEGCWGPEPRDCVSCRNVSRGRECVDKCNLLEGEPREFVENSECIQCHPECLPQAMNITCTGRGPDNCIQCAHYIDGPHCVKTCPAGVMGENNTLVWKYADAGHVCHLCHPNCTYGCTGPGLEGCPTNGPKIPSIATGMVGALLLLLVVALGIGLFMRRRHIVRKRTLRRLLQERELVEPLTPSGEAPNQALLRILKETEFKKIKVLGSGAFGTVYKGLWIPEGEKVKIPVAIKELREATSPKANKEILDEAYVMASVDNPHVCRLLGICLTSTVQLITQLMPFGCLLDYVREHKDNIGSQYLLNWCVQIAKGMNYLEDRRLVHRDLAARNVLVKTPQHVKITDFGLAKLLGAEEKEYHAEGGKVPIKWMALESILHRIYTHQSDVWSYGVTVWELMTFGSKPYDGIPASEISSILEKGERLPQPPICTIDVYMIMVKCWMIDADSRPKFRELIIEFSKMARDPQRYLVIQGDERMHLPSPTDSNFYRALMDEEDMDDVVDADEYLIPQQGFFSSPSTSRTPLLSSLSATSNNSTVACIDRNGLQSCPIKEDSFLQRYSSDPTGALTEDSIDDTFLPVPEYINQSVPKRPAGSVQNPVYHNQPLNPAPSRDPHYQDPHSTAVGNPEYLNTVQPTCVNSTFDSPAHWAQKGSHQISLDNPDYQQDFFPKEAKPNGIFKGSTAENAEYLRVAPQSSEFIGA", "procedure,_shortened": "as §1"}, "[3]": {"biological_target": "T3, 384 kinases from the human genome (Homo sapiens, UniProt P04049)", "T3 construct": "purchased Eurofin/DiscoverX", "conditions": "kinase RAF1 (Entrez RAF1)", "procedure,_shortened": "as §1"}, "[4]": {"biological_target": "T4, 384 kinases from the human genome (Homo sapiens, UniProt P06239)", "T4 construct": "purchased Eurofin/DiscoverX", "conditions": "kinase LCK (Entrez LCK)", "procedure,_shortened": "as §1"}, "[5]": {"biological_target": "T5, 384 kinases from the human genome (Homo sapiens, UniProt P08922)", "T5 construct": "purchased Eurofin/DiscoverX", "conditions": "kinase ROS1 (Entrez ROS1)", "procedure,_shortened": "as §1"}, "[6]": {"biological_target": "T6, 384 kinases from the human genome (Homo sapiens, UniProt P17948)", "T6 construct": "purchased Eurofin/DiscoverX", "T6 sequence (P17948 27-1338)": "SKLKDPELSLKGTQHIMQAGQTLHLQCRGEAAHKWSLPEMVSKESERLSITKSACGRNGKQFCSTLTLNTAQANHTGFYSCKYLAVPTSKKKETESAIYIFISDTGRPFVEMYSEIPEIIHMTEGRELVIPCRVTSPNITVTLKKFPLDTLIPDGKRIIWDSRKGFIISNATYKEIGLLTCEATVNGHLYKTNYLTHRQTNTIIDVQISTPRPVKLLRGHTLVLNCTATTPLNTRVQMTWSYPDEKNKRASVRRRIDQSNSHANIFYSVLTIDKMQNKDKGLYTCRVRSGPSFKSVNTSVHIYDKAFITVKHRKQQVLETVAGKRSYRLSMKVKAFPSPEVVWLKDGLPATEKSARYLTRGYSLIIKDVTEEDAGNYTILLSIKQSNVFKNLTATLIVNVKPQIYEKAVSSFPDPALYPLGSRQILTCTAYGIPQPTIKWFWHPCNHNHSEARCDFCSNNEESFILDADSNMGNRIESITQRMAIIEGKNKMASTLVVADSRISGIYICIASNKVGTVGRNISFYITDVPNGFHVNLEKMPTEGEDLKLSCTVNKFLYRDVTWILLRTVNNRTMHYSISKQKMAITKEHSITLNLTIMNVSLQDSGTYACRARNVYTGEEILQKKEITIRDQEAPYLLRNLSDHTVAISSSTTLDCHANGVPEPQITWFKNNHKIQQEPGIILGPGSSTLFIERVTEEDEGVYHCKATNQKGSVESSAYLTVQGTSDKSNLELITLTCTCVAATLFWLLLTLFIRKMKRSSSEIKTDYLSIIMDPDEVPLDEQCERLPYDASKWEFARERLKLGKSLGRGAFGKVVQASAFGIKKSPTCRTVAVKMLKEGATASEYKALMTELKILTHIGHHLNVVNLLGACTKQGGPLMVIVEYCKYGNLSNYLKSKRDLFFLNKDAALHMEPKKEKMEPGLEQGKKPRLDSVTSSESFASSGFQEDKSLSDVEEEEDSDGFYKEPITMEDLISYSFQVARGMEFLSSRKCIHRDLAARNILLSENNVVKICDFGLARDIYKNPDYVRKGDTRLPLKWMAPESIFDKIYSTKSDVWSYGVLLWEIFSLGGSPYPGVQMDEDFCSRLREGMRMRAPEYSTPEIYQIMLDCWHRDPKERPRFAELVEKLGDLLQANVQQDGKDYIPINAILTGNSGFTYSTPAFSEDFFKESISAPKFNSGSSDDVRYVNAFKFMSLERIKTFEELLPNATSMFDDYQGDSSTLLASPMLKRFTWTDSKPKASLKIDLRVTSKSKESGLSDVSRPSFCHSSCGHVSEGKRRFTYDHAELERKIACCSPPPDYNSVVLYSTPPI", "conditions": "kinase FLT1 (Entrez FLT1)", "procedure,_shortened": "as §1"}, "[7]": {"biological_target": "T7, 384 kinases from the human genome (Homo sapiens, UniProt P21860)", "T7 construct": "purchased Eurofin/DiscoverX", "conditions": "kinase ERBB3 (Entrez ERBB3)", "procedure,_shortened": "as §1"}, "[8]": {"biological_target": "T8, 384 kinases from the human genome (Homo sapiens, UniProt P24941)", "T8 construct": "purchased Eurofin/DiscoverX", "conditions": "kinase CDK2 (Entrez CDK2)", "procedure,_shortened": "as §1"}, "[9]": {"biological_target": "T9, 384 kinases from the human genome (Homo sapiens, UniProt P42680)", "T9 construct": "purchased Eurofin/DiscoverX", "conditions": "kinase TEC (Entrez TEC)", "procedure,_shortened": "as §1"}, "[10]": {"biological_target": "T10, 384 kinases from the human genome (Homo sapiens, UniProt P53355)", "T10 construct": "purchased Eurofin/DiscoverX", "conditions": "kinase DAPK1 (Entrez DAPK1)", "procedure,_shortened": "as §1"}, "[11]": {"biological_target": "T11, 384 kinases from the human genome (Homo sapiens, UniProt P54764)", "T11 construct": "purchased Eurofin/DiscoverX", "conditions": "kinase EPHA4 (Entrez EPHA4)", "procedure,_shortened": "as §1"}, "[12]": {"biological_target": "T12, 384 kinases from the human genome (Homo sapiens, UniProt Q04759)", "T12 construct": "purchased Eurofin/DiscoverX", "conditions": "kinase PRKCQ (Entrez PRKCQ)", "procedure,_shortened": "as §1"}, "[13]": {"biological_target": "T13, 384 kinases from the human genome (Homo sapiens, UniProt Q04771)", "T13 construct": "purchased Eurofin/DiscoverX", "conditions": "kinase ACVR1 (Entrez ACVR1)", "procedure,_shortened": "as §1"}, "[14]": {"biological_target": "T14, 384 kinases from the human genome (Homo sapiens, UniProt Q12866)", "T14 construct": "purchased Eurofin/DiscoverX", "conditions": "kinase MERTK (Entrez MERTK)", "procedure,_shortened": "as §1"}, "[15]": {"biological_target": "T15, 384 kinases from the human genome (Homo sapiens, UniProt Q13177)", "T15 construct": "purchased Eurofin/DiscoverX", "conditions": "kinase PAK2 (Entrez PAK2)", "procedure,_shortened": "as §1"}, "[16]": {"biological_target": "T16, 384 kinases from the human genome (Homo sapiens, UniProt Q15835)", "T16 construct": "purchased Eurofin/DiscoverX", "conditions": "kinase GRK1 (Entrez GRK1)", "procedure,_shortened": "as §1"}, "[17]": {"biological_target": "T17, 384 kinases from the human genome (Homo sapiens, UniProt Q59H18)", "T17 construct": "purchased Eurofin/DiscoverX", "conditions": "kinase TNNI3K (Entrez TNNI3K)", "procedure,_shortened": "as §1"}, "[18]": {"biological_target": "T18, 384 kinases from the human genome (Homo sapiens, UniProt Q5VT25)", "T18 construct": "purchased Eurofin/DiscoverX", "conditions": "kinase MRCKA (Entrez CDC42BPA)", "procedure,_shortened": "as §1"}, "[19]": {"biological_target": "T19, 384 kinases from the human genome (Homo sapiens, UniProt Q86UX6)", "T19 construct": "purchased Eurofin/DiscoverX", "conditions": "kinase YANK3 (Entrez STK32C)", "procedure,_shortened": "as §1"}, "[20]": {"biological_target": "T20, 384 kinases from the human genome (Homo sapiens, UniProt Q86Y07)", "T20 construct": "purchased Eurofin/DiscoverX", "T20 sequence (Q86Y07 whole entry)": "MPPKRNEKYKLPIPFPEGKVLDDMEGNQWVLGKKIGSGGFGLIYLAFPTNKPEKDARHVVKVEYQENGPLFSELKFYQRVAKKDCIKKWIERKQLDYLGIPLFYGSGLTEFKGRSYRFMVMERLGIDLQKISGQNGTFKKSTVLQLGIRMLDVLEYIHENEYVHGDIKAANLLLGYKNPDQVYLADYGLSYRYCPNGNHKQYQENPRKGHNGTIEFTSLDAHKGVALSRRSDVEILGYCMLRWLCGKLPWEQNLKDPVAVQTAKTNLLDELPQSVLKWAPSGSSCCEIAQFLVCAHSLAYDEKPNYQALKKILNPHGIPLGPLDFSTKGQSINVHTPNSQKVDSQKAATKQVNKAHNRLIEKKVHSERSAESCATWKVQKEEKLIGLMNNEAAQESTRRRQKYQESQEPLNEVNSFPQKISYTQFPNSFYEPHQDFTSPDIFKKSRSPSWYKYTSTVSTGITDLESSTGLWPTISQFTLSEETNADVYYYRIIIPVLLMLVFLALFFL", "conditions": "kinase VRK2 (Entrez VRK2)", "procedure,_shortened": "as §1"}, "[21]": {"biological_target": "T21, 384 kinases from the human genome (Homo sapiens, UniProt Q8WU08)", "T21 construct": "purchased Eurofin/DiscoverX", "conditions": "kinase YANK1 (Entrez STK32A)", "procedure,_shortened": "as §1"}, "[22]": {"biological_target": "T22, 384 kinases from the human genome (Homo sapiens, UniProt Q9BXA7)", "T22 construct": "purchased Eurofin/DiscoverX", "T22 sequence (Q9BXA7 whole entry)": "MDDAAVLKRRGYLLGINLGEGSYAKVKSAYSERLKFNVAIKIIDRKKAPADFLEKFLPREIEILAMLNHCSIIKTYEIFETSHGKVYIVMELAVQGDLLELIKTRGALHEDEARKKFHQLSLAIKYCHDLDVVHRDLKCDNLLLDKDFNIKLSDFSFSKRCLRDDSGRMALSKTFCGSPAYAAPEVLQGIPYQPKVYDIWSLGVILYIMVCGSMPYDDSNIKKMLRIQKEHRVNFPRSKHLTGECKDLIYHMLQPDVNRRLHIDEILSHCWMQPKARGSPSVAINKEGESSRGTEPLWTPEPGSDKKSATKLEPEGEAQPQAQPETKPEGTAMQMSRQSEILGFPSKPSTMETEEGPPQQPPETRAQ", "conditions": "kinase TSSK1B (Entrez TSSK1B)", "procedure,_shortened": "as §1"}, "[23]": {"biological_target": "T23, 384 kinases from the human genome (Homo sapiens, UniProt Q9BYP7)", "T23 construct": "purchased Eurofin/DiscoverX", "conditions": "kinase WNK3 (Entrez WNK3)", "procedure,_shortened": "as §1"}, "[24]": {"biological_target": "T24, 384 kinases from the human genome (Homo sapiens, UniProt Q9H2G2)", "T24 construct": "purchased Eurofin/DiscoverX", "conditions": "kinase SLK (Entrez SLK)", "procedure,_shortened": "as §1"}, "[25]": {"biological_target": "T25, 384 kinases from the human genome (Homo sapiens, UniProt Q9H3Y6)", "T25 construct": "purchased Eurofin/DiscoverX", "conditions": "kinase SRMS (Entrez SRMS)", "procedure,_shortened": "as §1"}, "[26]": {"biological_target": "T26, 384 kinases from the human genome (Homo sapiens, UniProt Q9NQU5)", "T26 construct": "purchased Eurofin/DiscoverX", "T26 sequence (Q9NQU5 whole entry)": "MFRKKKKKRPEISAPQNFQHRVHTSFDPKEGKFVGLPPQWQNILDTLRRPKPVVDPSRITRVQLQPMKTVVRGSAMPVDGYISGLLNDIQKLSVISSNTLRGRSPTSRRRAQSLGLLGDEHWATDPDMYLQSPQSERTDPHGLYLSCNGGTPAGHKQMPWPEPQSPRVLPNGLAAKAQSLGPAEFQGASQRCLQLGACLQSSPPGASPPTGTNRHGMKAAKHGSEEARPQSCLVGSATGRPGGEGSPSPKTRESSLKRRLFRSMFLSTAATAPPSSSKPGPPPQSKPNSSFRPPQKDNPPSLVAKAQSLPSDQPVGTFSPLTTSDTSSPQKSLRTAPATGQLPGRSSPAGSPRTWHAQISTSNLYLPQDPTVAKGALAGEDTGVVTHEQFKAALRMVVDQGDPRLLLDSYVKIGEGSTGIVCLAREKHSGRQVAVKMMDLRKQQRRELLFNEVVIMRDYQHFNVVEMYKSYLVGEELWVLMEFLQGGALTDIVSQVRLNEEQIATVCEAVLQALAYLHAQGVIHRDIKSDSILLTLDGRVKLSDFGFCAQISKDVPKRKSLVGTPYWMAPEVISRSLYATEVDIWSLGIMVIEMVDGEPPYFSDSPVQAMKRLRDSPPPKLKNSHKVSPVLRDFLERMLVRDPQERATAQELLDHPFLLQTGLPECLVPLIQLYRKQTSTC", "conditions": "kinase PAK6 (Entrez PAK6)", "procedure,_shortened": "as §1"}}}
{"smiles": "CC(C)C(=O)N1CCN(c2ccc(NC(=O)c3cc4ccccc4o3)cc2Cl)CC1", "note": "[Compound 21]", "values": [{"measurement": "Percent Control", "setting": "[1]", "value": 55, "unit": "%"}, {"measurement": "binding to EGFR", "setting": "[2]; 10 µM of 21", "value": "failed to bind"}, {"measurement": "Percent Control", "setting": "[2]; kinase EGFR (Entrez EGFR)", "value": 89, "unit": "%"}, {"measurement": "Percent Control", "setting": "[3]", "value": 79, "unit": "%"}, {"measurement": "Percent Control", "setting": "[4]", "value": 97, "unit": "%"}, {"measurement": "Percent Control", "setting": "[5]", "value": 94, "unit": "%"}, {"measurement": "Percent Control", "setting": "[6]", "value": 87, "unit": "%"}, {"measurement": "Percent Control", "setting": "[7]", "value": 83, "unit": "%"}, {"measurement": "Percent Control", "setting": "[8]", "value": 100, "unit": "%"}, {"measurement": "Percent Control", "setting": "[9]", "value": 98, "unit": "%"}, {"measurement": "Percent Control", "setting": "[10]", "value": 90, "unit": "%"}, {"measurement": "Percent Control", "setting": "[11]", "value": 95, "unit": "%"}, {"measurement": "Percent Control", "setting": "[12]", "value": 93, "unit": "%"}, {"measurement": "Percent Control", "setting": "[13]", "value": 70, "unit": "%"}, {"measurement": "Percent Control", "setting": "[14]", "value": 70, "unit": "%"}, {"measurement": "Percent Control", "setting": "[15]", "value": 100, "unit": "%"}, {"measurement": "Percent Control", "setting": "[16]", "value": 94, "unit": "%"}, {"measurement": "Percent Control", "setting": "[17]", "value": 70, "unit": "%"}, {"measurement": "Percent Control", "setting": "[18]", "value": 68, "unit": "%"}, {"measurement": "Percent Control", "setting": "[19]", "value": 100, "unit": "%"}, {"measurement": "Percent Control", "setting": "[20]", "value": 88, "unit": "%"}, {"measurement": "Percent Control", "setting": "[21]", "value": 81, "unit": "%"}, {"measurement": "Percent Control", "setting": "[22]", "value": 100, "unit": "%"}, {"measurement": "Percent Control", "setting": "[23]", "value": 90, "unit": "%"}, {"measurement": "Percent Control", "setting": "[24]", "value": 100, "unit": "%"}, {"measurement": "Percent Control", "setting": "[25]", "value": 100, "unit": "%"}, {"measurement": "Percent Control", "setting": "[26]", "value": 81, "unit": "%"}]}
